Laboratory results published in US20110217241A1, “CONJUGATES OF 19F MR IMAGING TRACERS FOR USE IN MULTI-CHROMIC MRI IMAGING” (University of Maryland, Baltimore, priority 2008, published 2011).

How the values were obtained:
[1] = 19F resonance frequency (chemical shift) with different metal ions; format: physicochemical; details: FIG. 6
Description: In FIG. 6, the darker bars indicate paramagnetic ion complexes and the lighter bars indicate diamagnetic complexes. As shown in the graph of FIG. 6, the different metal ions led to different ^19F resonance frequencies, ranging from δ(^19FIT-Bi^3+)=−71.17 ppm to δ(^19FIT-Tb^3+)=−63.32 ppm. In each case, there was a single ^19F signal.

[2] = 19F relaxation times (T1, T2) under different solution conditions; format: physicochemical; details: for Relaxation Times T1 / Relaxation Times T2 / T1 percentage relative to T1 under Condition 1 / T2 percentage relative to T2 under Condition 1: pH 7, 50 mM; for Relaxation Times T1 / Relaxation Times T2 / pH dependency of 19F relaxation times T1 and T2: 11.7 Tesla; for pH dependency of 19F relaxation times T1 and T2: pH 6, 7 & 8
Description: The ^19F T1 and T2 were determined under different solution conditions for the paramagnetic ^19FIT-Gd^3+ and for the diamagnetic ^19FIT-Y^3+ from the above example (and shown in FIG. 6). The conditions and results are summarized below in Table 1. The percentage numbers for Conditions 2-5 were calculated relative to T1 or T2 under Condition 1. […] For example, the weakly paramagnetic O2 had little effect on the ^19F T1 and T2 of ^19FIT-Gd^3+.
19F T1 and T2 were also determined for ^19FIT-Gd^3+ and ^19FIT-Y^3+ at different pH values (pH 6 7 & 8). […] The NMR field strength for the testing was 11.7 Tesla.

[3] = Condition 1: PBS buffer saturated with N2, 25° C.
[4] = Condition 2: PBS buffer saturated with O2, 25° C.
[5] = Condition 3: PBS buffer saturated with N2, 45° C.
[6] = Condition 4: Human sera with 10% D2O saturated with N2, 25° C.
[7] = Condition 5: 10% w/v bovine serum albumin in PBS buffer saturated with N2, 25° C.

Row | SMILES | 19F resonance frequency δ [1] [ppm] | Relaxation Times T1 [2, 3] [ms] | Relaxation Times T2 [2, 3] [ms] | T1 percentage relative to T1 under Condition 1 [2, 4] | T2 percentage relative to T2 under Condition 1 [2, 4] | Relaxation Times T1 [2, 4] [ms] | Relaxation Times T2 [2, 4] [ms] | T1 percentage relative to T1 under Condition 1 [2, 5] | T2 percentage relative to T2 under Condition 1 [2, 5] | Relaxation Times T1 [2, 5] [ms] | Relaxation Times T2 [2, 5] [ms] | T1 percentage relative to T1 under Condition 1 [2, 6] | T2 percentage relative to T2 under Condition 1 [2, 6] | Relaxation Times T1 [2, 6] [ms] | Relaxation Times T2 [2, 6] [ms] | T1 percentage relative to T1 under Condition 1 [2, 7] | T2 percentage relative to T2 under Condition 1 [2, 7] | Relaxation Times T1 [2, 7] [ms] | Relaxation Times T2 [2, 7] [ms] | pH dependency of 19F relaxation times T1 and T2 [2] | also measured
1 | O=C([O-])CN1CCN(CC(=O)[O-])CCN(CC(=O)NCCOCCOCCOCCOC(C(F)(F)F)(C(F)(F)F)C(F)(F)F)CCN(CC(=O)[O-])CC1.[Bi+3] [^19FIT-Bi^3+] | −71.17 |  |  |  |  |  |  |  |  |  |  |  |  |  |  |  |  |  |  |  | 
2 | O=C([O-])CN1CCN(CC(=O)[O-])CCN(CC(=O)NCCOCCOCCOCCOC(C(F)(F)F)(C(F)(F)F)C(F)(F)F)CCN(CC(=O)[O-])CC1.[Gd+3] [^19FIT-Gd^3+] |  | 4.24 | 1.66 | (−0.7%) | (−6.0%) | 4.27 | 1.56 | (−6.4%) | (−26.5%) | 3.97 | 1.22 | (−0.7%) | (−48.2%) | 4.27 | 0.86 | (6.6%) | (−66.9%) | 4.52 | 0.55 | neither complex showed significant pH dependency | effect of weakly paramagnetic O2 on 19F T1 and T2 ([2]; Condition 2 vs Condition 1): little effect
3 | O=C([O-])CN1CCN(CC(=O)[O-])CCN(CC(=O)NCCOCCOCCOCCOC(C(F)(F)F)(C(F)(F)F)C(F)(F)F)CCN(CC(=O)[O-])CC1.[Tb+3] [^19FIT-Tb^3+] | −63.32 |  |  |  |  |  |  |  |  |  |  |  |  |  |  |  |  |  |  |  | 
4 | O=C([O-])CN1CCN(CC(=O)[O-])CCN(CC(=O)NCCOCCOCCOCCOC(C(F)(F)F)(C(F)(F)F)C(F)(F)F)CCN(CC(=O)[O-])CC1.[Y+3] [^19FIT-Y^3+] |  | 1498 | 1057 | (−28.3%) | (−37.1%) | 1074 | 665 | (42.4%) | (43.0%) | 2133 | 1511 | (−19.2%) | (−79.8%) | 1211 | 214 | (−19.9%) | (−86.8%) | 1200 | 139 | neither complex showed significant pH dependency | 
